Target: RAC-alpha serine/threonine-protein kinase (Homo sapiens, UniProt P31749)
Assay: Akt1 Inhibitory Activity Assay
Conditions: pH 7.5; 25 °C
Procedure: In vitro kinase assays were carried out using HTScan PKB/Akt1 Kinase Assay kit (Cell Signaling Technology). […] Then, PKB/Akt1 kinase activity was analyzed according to the manufacturer's instructions.

Chain of RAC-alpha serine/threonine-protein kinase (P31749 whole entry): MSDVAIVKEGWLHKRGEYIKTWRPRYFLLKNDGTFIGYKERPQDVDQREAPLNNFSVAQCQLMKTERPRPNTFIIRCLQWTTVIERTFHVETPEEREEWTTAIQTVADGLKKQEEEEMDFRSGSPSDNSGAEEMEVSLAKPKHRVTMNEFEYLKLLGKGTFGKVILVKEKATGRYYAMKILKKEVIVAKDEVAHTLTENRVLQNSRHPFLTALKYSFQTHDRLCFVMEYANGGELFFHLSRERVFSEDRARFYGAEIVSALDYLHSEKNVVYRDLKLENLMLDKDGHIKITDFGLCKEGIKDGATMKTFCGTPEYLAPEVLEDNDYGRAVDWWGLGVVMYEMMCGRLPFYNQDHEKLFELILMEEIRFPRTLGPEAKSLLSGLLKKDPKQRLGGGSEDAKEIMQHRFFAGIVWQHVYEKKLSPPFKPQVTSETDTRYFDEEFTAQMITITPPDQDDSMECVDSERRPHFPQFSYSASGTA

SMILES	IC50 [µM]
O=c1c(O)c(-c2ccc(O)c(O)c2)oc2cc(O)c(CN3CCOCC3)c(O)c12 [2-(3,4-Dihydroxyphenyl)-3,5,7-trihydroxy-6-(morpholinomethyl)-4H-chromen-4-one (3a)]	6.2
CN(Cc1ccccc1)Cc1c(O)cc2oc(-c3ccc(O)c(O)c3)c(O)c(=O)c2c1O [6-((Benzyl(methyl)amino)methyl)-2-(3,4-dihydroxyphenyl)-3,5,7-trihydroxy-4H-chromen-4-one (3c)]	5.5

Source: BindingDB's records for doi:10.1111/cbdd.12489 (Zhejiang University, 2015)
